Test results reported in PMC12044326 (Clinical Pharmacology in Drug Development, 2025).
Like-named read-outs stand apart in the source and are kept apart here.

Legend:
UGT1A9 [1] = target: T1, UGT1A9 (Homo sapiens, UniProt O60656); settings: both, 20 min, pH 7.4
T1 sequence (O60656 26-530): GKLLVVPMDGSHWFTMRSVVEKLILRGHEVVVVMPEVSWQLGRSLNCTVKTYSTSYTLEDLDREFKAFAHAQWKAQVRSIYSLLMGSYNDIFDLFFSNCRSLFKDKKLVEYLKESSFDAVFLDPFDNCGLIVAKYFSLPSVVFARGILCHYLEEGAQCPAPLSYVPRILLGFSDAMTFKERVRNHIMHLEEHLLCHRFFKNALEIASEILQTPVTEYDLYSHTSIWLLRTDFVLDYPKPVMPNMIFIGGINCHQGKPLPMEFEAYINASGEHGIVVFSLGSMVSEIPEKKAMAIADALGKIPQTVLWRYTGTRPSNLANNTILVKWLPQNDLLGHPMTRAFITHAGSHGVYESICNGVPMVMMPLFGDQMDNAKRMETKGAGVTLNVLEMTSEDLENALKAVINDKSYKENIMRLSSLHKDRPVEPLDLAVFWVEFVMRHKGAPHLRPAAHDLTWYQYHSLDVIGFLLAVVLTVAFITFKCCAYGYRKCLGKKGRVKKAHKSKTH

UGT2B4 = target: T2, UGT2B4 (Homo sapiens, UniProt P06133); test: PBPK elimination inputs (retrograde model, fm, KM sensitivity); settings: PBPK input
T2 sequence (P06133 24-528): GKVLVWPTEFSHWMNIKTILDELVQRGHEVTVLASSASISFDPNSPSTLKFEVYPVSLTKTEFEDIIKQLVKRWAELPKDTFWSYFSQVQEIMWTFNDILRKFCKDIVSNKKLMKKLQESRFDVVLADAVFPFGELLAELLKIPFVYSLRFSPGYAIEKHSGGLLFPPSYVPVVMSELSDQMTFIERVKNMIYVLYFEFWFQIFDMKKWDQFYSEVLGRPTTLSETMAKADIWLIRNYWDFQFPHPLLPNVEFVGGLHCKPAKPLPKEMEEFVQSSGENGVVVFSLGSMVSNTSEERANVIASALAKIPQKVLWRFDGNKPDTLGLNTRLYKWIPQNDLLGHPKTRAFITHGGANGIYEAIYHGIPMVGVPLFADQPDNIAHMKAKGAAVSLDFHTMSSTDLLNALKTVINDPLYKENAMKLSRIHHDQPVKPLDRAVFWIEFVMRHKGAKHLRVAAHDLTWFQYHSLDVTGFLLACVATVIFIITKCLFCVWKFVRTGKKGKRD

CYP2C9 = CYP2C9 (Homo sapiens, UniProt P11712); test: Reversible CYP inhibition in human liver microsomes
Chain of CYP2C9 (P11712 whole entry): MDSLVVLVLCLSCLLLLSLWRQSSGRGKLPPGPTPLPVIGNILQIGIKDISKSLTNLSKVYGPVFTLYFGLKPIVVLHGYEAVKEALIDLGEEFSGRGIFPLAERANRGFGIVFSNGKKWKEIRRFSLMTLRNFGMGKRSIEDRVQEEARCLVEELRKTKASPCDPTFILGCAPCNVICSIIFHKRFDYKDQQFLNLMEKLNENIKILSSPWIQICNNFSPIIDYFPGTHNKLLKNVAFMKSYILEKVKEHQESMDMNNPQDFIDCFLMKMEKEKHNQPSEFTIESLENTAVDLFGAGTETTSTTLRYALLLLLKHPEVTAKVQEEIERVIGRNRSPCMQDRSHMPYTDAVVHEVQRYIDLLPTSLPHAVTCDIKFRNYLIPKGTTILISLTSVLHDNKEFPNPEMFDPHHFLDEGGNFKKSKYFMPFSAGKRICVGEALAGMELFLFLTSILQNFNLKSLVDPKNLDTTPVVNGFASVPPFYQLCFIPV

CYP3A4 = settings: predicted by combining in vitro phenotyping and human ADME data; cited from earlier work
P‐glycoprotein (P‐gp) = target: T3, P‐glycoprotein (P‐gp) (Homo sapiens, UniProt P08183); type: in vitro ADME
T3 construct: Caco-2 cells were obtained from American Type Culture Collection; host or cells: Caco-2 cell monolayers
T3 sequence (P08183 whole entry): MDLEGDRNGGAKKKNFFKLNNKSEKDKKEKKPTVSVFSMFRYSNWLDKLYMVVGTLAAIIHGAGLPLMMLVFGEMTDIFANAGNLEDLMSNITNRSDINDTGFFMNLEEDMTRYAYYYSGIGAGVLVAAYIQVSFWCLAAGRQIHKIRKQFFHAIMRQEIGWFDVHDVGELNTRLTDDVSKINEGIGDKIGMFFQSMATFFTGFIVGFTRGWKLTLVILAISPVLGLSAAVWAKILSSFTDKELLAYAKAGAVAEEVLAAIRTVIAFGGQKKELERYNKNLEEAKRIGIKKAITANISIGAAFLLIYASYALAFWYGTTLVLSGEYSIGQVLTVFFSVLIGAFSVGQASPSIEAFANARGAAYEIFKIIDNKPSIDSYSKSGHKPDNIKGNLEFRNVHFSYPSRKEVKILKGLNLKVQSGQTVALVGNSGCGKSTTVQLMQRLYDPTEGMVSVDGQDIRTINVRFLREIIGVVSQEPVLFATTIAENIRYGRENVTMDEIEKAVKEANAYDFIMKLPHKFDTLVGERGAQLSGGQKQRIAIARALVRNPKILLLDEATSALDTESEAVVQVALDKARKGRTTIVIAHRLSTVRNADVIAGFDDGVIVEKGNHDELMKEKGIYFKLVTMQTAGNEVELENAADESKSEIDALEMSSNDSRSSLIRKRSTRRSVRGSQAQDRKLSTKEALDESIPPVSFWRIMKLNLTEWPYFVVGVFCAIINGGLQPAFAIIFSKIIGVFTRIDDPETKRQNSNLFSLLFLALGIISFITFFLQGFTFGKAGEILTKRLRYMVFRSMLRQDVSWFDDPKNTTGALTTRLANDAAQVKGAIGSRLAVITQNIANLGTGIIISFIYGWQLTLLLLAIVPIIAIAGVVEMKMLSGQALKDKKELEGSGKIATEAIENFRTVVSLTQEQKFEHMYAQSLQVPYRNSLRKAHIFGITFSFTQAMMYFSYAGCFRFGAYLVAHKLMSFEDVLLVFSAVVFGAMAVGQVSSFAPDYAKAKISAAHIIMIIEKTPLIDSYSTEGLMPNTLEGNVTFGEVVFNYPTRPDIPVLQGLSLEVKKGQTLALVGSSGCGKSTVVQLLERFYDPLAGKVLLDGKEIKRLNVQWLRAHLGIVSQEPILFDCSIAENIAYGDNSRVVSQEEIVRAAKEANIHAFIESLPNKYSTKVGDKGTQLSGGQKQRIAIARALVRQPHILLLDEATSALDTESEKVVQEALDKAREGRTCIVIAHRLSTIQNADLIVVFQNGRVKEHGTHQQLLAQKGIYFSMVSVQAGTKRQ
Method: (§1) Prior to the experiments,
(§2) The cells were cultured at […]
(§3) measuring the trans-epithelial electrical resistance (TEER) value. The TEER values of cell […]
(§4) The volumes of the replaced […]
(§5) shaker at 37°C until use.
(§6) Apical to Basal Transport (A to B).
(§7) (soticlestat or quinidine) were added.
(§8) After incubation for 1 hour, 100 μL […]
(§9) radioactivity using an LSC. […]
(§10) collected and measured for the radioactivity using an LSC.
(§11) Basal to Apical Transport (B to A).
(§12) (soticlestat or quinidine) were added. […] Then […]
(§13) cells were incubated at 37°C.
(§14) HBSS solution were added to the apical side.

P‐gp = target: T4, P‐gp (Homo sapiens, UniProt P08183); type: in vitro ADME
T4 construct: Caco-2 cells were obtained from American Type Culture Collection; host or cells: Caco-2 cell monolayers
T4 sequence (P08183 whole entry): as above
Method: as §1, §2, §3, §4, §5, §6, §7, §8, §9, §10, §11, §12, §13, §14

[2] = parameters: method as in earlier work; settings: ref 7 of supplement, cited from earlier work
UGT1A9 [3] = target: T1, UGT1A9; parameters: method as in PMID 38123352; settings: cited from earlier work
[4] = system: cholesterol 24‐hydroxylase (CH24H); settings: 100, 200, and 300 mg BID, cited from earlier work
OATP1B3 = target: T5, OATP1B3 (Homo sapiens, UniProt Q9NPD5)
T5 sequence (Q9NPD5 1-702): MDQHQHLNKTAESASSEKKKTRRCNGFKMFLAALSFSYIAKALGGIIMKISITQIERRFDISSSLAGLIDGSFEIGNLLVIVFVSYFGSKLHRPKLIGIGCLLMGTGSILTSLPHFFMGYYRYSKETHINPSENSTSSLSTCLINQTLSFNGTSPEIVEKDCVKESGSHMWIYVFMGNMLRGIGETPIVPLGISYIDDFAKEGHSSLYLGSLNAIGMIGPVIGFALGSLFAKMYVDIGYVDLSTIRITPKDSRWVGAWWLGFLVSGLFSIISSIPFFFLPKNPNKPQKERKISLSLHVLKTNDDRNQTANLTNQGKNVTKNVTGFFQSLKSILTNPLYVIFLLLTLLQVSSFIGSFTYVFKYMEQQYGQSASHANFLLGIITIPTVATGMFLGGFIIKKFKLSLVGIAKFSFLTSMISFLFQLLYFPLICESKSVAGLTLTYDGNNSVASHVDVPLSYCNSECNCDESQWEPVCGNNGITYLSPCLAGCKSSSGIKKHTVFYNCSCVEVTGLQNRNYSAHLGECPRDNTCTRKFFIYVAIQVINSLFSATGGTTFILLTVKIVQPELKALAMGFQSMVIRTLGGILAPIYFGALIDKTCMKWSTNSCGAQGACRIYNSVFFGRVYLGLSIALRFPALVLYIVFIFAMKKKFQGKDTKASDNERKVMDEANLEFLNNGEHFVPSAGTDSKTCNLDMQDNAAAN

[5] = 100 mg QD, Day 1, geometric mean
[6] = 100 mg QD, Day 14, geometric mean
[7] = 300 mg QD, Day 1, geometric mean
[8] = 300 mg QD, Day 14, geometric mean
[9] = 400 mg QD, Day 1, geometric mean
[10] = 400 mg QD, Day 14, geometric mean
[11] = Fig 2C, soticlestat 300 mg alone or with mefenamic acid, n = 14

In the case of O=C(c1cccnc1-c1ccncc1)N1CCC(O)(Cc2ccccc2)CC1 [Soticlestat], the “fm of total UGT mediated glucuronidation via UGT1A9” value (UGT1A9 [1]) is reported as ~10%, the fmUGT2B4 (UGT2B4) is reported as 0.8 and the Ki (CYP2C9) is reported as 15.6 µM. For the same molecule, the fumic (CYP2C9; human) was 0.88, the “inhibition of CYP2C9” value (CYP2C9; microsomes) was “low double‐digit micromolar values” and the “fm by CYP3A” value (CYP3A4) was 9.5%. The IC50 (P‐glycoprotein (P‐gp)) was 81.1 µM, the Ki (P‐glycoprotein (P‐gp)) was 80 µM and the “substrate for P‐gp” value (P‐gp) was “not a substrate”. The AUC0-24 observed [2, 5] was 422 ng·h/mL, the Cmax observed [2, 5] was 419 ng/mL and the tmax observed ([2]; 100 mg QD, Day 1, median) was 25.2 min. The AUCtau observed [2, 6] was 443 ng·h/mL, the Cmax observed [2, 6] was 469 ng/mL and the tmax observed ([2]; 100 mg QD, Day 14, median) was 19.8 min. For the same molecule, the AUC0-24 observed [2, 7] was 1798 ng·h/mL, the Cmax observed [2, 7] was 1729 ng/mL and the tmax observed ([2]; 300 mg QD, Day 1, median) was 25.2 min. For the same molecule, the AUCtau observed [2, 8] was 2497 ng·h/mL, the Cmax observed [2, 8] was 2866 ng/mL and the tmax observed ([2]; 300 mg QD, Day 14, median) was 19.8 min. The AUC0-24 observed [2, 9] was 2283 ng·h/mL, the Cmax observed [2, 9] was 2374 ng/mL and the AUCtau observed [2, 10] was 2605 ng·h/mL. The Cmax observed [2, 10] was 2709 ng/mL, the AUC0-inf observed (UGT1A9 [3]; [11]) was 1526 ng·h/mL and the Cmax observed (UGT1A9 [3]; [11]) was 1414 ng/mL. For the same molecule, the “effect on soticlestat exposure” value (UGT1A9 [3]; with mefenamic acid) was “did not affect soticlestat exposure”, the 24HC reduction ([4]; steady state) was ≥ 60% and the “steady‐state enzyme occupancy” value [4] was ≥ 65%. The “inhibition of OATP1B3” value (OATP1B3) was “did not demonstrate clinically relevant inhibition”.
